# Measurements taken from article PMC4773067 (PLoS ONE, 2016).
# Entries after “also recorded” stand apart in the source; their conditions may differ.
# Columns and labels:
# [1] = test system: hSR-transfected CHO-K1 cells; experiment: Antagonist cAMP response (coincubation with hSCT, HTRF-LANCE cAMP assay); assay type: cell-based, human; settings: Table 4; cAMP response with 5 nM hSCT plus analog 10^-12 to 10^-6 M, 30 min
# Description: Detection was subsequently performed according to the manufacturer’s instructions.
# (§1) All in vitro results were analyzed in quadruplicate, and the data are expressed as the means ± SEM. Significant differences were identified using Student’s t-test at p<0.05. The dose response was analyzed using GraphPad Prism 5.0 software with a variable slope (four parameters).
# [2] = test system: hSR-transfected CHO-K1 cells; experiment: Agonist cAMP response (HTRF-LANCE cAMP assay); assay type: cell-based, human; settings: for Agonistic response: Table 4, cAMP response at various doses
# Description: The cAMP responses in hSR-transfected CHO-K1 cells were detected using the HTRF-LANCE® cAMP assay kit. After 48 h of transfection, the cells were detached by nonenzymatic treatment using Versene. The cells were counted and processed according to the manufacturer’s instructions to measure the cAMP response following cell treatment with the secretin analogs. hSCT was used as a positive control. The TRF signals (340 nm excitation/665 nm emission) were detected using a VICTOR X4 spectrofluorometer (PerkinElmer), and the cAMP concentration was determined using a standard curve.
# as §1
# [3] = biological target: SNAPtag-hSR (human secretin receptor) in transfected CHO-K1 cells (Homo sapiens, UniProt P47872); experiment: FRET competitive binding assay
# [4] = biological target: human secretin receptor (human) (UniProt P47872); experiment: FRET or BRET; competitive binding, dose response 10^-12 M to 10^-4 M of unlabelled peptide against 500 nM labelled hSCT on CHO-K1 cells with Lumi4-Tb-labelled SNAPtag-hSR, 4–8°C, 1 h; nonspecific signal with 100 μM unlabelled hSCT subtracted; four-parameter fit
# human secretin receptor (human), sequence (P47872 23-440): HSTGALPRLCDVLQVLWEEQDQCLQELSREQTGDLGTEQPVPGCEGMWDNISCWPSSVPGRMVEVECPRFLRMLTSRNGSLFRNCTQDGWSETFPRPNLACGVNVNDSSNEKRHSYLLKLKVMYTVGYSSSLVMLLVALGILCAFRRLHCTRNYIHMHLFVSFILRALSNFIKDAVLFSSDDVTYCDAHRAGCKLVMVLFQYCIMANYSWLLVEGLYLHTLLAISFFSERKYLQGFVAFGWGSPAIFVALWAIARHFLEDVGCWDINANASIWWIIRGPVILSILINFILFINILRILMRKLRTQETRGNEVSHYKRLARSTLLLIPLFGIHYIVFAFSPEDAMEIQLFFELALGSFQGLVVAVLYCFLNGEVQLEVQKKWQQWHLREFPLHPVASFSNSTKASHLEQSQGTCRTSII
# SNAPtag-hSR (human secretin receptor) in transfected CHO-K1 cells, sequence (P47872 23-440): as above
Compound,Antagonistic response [1],"agonist activity at hSR, cAMP (in words) [2]",Agonistic response [2],in vitro binding to hSR (in words) [3],IC50 [4]
"CC(C)C[C@H](NC(=O)CNC(=O)[C@H](CCC(N)=O)NC(=O)[C@H](CC(C)C)NC(=O)[C@H](CC(C)C)NC(=O)[C@H](CCCNC(=N)N)NC(=O)[C@H](CCC(N)=O)NC(=O)[C@H](CC(C)C)NC(=O)[C@H](CCCNC(=N)N)NC(=O)[C@H](C)NC(=O)[C@H](CO)NC(=O)[C@H](CC(=O)O)NC(=O)[C@H](CCC(N)=O)NC(=O)[C@H](CC(C)C)NC(=O)[C@H](CCCNC(=N)N)NC(=O)[C@H](CO)NC(=O)[C@H](CC(C)C)NC(=O)[C@H](CCC(=O)O)NC(=O)[C@H](CO)NC(=O)[C@@H](NC(=O)[C@H](Cc1ccccc1)NC(=O)[C@@H](NC(=O)CNC(=O)[C@H](CC(=O)O)NC(=O)[C@H](CO)NC(=O)[C@@H](N)Cc1c[nH]cn1)[C@@H](C)O)[C@@H](C)O)C(=O)N[C@H](C(=O)O)C(C)C [Analog 15, Rat SCT]",Absent,agonist,Present,–,–
"CC(C)C[C@H](NC(=O)CNC(=O)[C@H](CCC(N)=O)NC(=O)[C@H](CC(C)C)NC(=O)[C@H](CC(C)C)NC(=O)[C@H](CCCNC(=N)N)NC(=O)[C@H](CCC(N)=O)NC(=O)[C@H](CC(C)C)NC(=O)[C@H](CCCNC(=N)N)NC(=O)[C@H](C)NC(=O)CNC(=O)[C@H](CCC(=O)O)NC(=O)[C@H](CCCNC(=N)N)NC(=O)[C@H](CC(C)C)NC(=O)[C@H](CCCNC(=N)N)NC(=O)[C@H](CO)NC(=O)[C@H](CC(C)C)NC(=O)[C@H](CCC(=O)O)NC(=O)[C@H](CO)NC(=O)[C@@H](NC(=O)[C@H](Cc1ccccc1)NC(=O)[C@@H](NC(=O)CNC(=O)[C@H](CC(=O)O)NC(=O)[C@H](CO)NC(=O)[C@@H](N)Cc1c[nH]cn1)[C@@H](C)O)[C@@H](C)O)C(=O)N[C@H](C(=O)O)C(C)C [hSCT, human secretin, reference compound]",Absent,–,Present,–,–
"H2N-Ala-Ser-Asp-Gly-Thr-Phe-Thr-Ser-Glu-Leu-Ser-Arg-Leu-Arg-Glu-Gly-Ala-Arg-Leu-Gln-Arg-Leu-Leu-Gln-Gly-Leu-Val- COOH [Analog 2, h[Ala^1]SCT]",Absent,–,Absent,–,–
"H2N-Arg-Glu-Gly-Ala-Arg-Leu-Gln-Arg-Leu-Leu-Gln-Gly-Leu-Val- COOH [Analog 20, Ct-SCT]",Absent,–,Absent,–,–
"H2N-Cit-Ser-Asp-Gly-Thr-Phe-Thr-Ser-Glu-Leu-Ser-Arg-Leu-Arg-Glu-Gly-Ala-Arg-Leu-Gln-Arg-Leu-Leu-Gln-Gly-Leu-Val- COOH [Analog 10, h[Cit^1]SCT]",Absent,–,Absent,–,–
"H2N-His-Pro-Asp-Gly-Thr-Phe-Thr-Ser-Glu-Leu-Ser-Arg-Leu-Arg-Glu-Gly-Ala-Arg-Leu-Gln-Arg-Leu-Leu-Gln-Gly-Leu-Val- COOH [Analog 1, h[Pro^2]SCT]",Absent,–,Absent,–,–
"H2N-His-Ser-Asp-Cha-Thr-Phe-Thr-Ser-Glu-Leu-Ser-Arg-Leu-Arg-Glu-Gly-Ala-Arg-Leu-Gln-Arg-Leu-Leu-Gln-Gly-Leu-Val- COOH [Analog 7, h[Cha^4]SCT]",Absent,–,Absent,–,–
"H2N-His-Ser-Asp-D-allyl,Gly-Thr-Phe-Thr-Ser-Glu-Leu-Ser-Arg-Leu-Arg-Glu-Gly-Ala-Arg-Leu-Gln-Arg-Leu-Leu-Gln-Gly-Leu-Val- COOH [Analog 5, h[(D-allyl,Gly^4]SCT]",Absent,–,Absent,–,–
"H2N-His-Ser-Asp-Gly-Leu-Phe-Thr-Ser-Glu-Tyr-Ser-Lys-Met-Arg-Gly-Asn-Ala-Gln-Val-Gln-Lys-Phe-Ile-Gln-Asn-Leu-Met- COOH [Analog 17, Chicken SCT]",Absent,–,Absent,–,–
"H2N-His-Ser-Asp-Gly-Thr-Phe-Thr-Ser-Glu-Leu-Ser-Arg-Leu- COOH [Analog 19, Nt-SCT]",Absent,–,Absent,–,–
"H2N-His-Ser-Asp-Pro-Thr-Phe-Thr-Ser-Glu-Leu-Ser-Arg-Leu-Arg-Glu-Gly-Ala-Arg-Leu-Gln-Arg-Leu-Leu-Gln-Gly-Leu-Val- COOH [Analog 13, h[Pro^4]SCT]",Absent,–,Absent,–,–
"H2N-His-Ser-Asp-Tyr-Thr-Phe-Thr-Ser-Glu-Leu-Ser-Arg-Leu-Arg-Glu-Gly-Ala-Arg-Leu-Gln-Arg-Leu-Leu-Gln-Gly-Leu-Val- COOH [Analog 14, h[Tyr^4]SCT]",Absent,–,Absent,–,–
"H2N-His-Ser-Asp-p-Cl,D-Phe^4-Thr-Phe-Thr-Ser-Glu-Leu-Ser-Arg-Leu-Arg-Glu-Gly-Ala-Arg-Leu-Gln-Arg-Leu-Leu-Gln-Gly-Leu-Val- COOH [Analog 4, h[(p-Cl,D-Phe^4]SCT]",Absent,–,Absent,–,–
"H2N-His-Ser-D-Asp-Gly-Thr-Phe-Thr-Ser-Glu-Leu-Ser-Arg-Leu-Arg-Glu-Gly-Ala-Arg-Leu-Gln-Arg-Leu-Leu-Gln-Gly-Leu-Val- COOH [Analog 8, h[D-Asp^3]SCT]",Absent,–,Absent,–,–
"H2N-His-Ser-pCO2HPhe-Gly-Thr-Phe-Thr-Ser-Glu-Leu-Ser-Arg-Leu-Arg-Glu-Gly-Ala-Arg-Leu-Gln-Arg-Leu-Leu-Gln-Gly-Leu-Val- COOH [Analog 11, h[pCO2H-Phe^3]SCT]",Absent,–,Absent,–,–
"H2N-His-Val-Asp-Gly-Arg-Phe-Thr-Ser-Glu-Phe-Ser-Arg-Ala-Arg-Gly-Ser-Ala-Ala-Ile-Arg-Lys-Ile-Ile-Asn-Ser-Ala-Leu-Ala- COOH [Analog 16, Xenopus SCT]",Absent,–,Absent,–,–
"H2N-His-Val-Asp-Gly-Leu-Phe-Thr-Ser-Glu-Leu-Ser-Lys-Leu-Arg-Gly-Ser-Ala-Val-Ala-Arg-Ser-Phe-Thr-Asn-Ala-Val-Leu- COOH [Analog 18, Coelacanths SCT]",Absent,–,Absent,–,–
"H2N-Leu-Ser-Asp-Gly-Thr-Phe-Thr-Ser-Glu-Leu-Ser-Arg-Leu-Arg-Glu-Gly-Ala-Arg-Leu-Gln-Arg-Leu-Leu-Gln-Gly-Leu-Val- COOH [Analog 3, h[Leu^1]SCT]",Absent,–,Absent,–,–
"H2N-Orn-Ser-Asp-Gly-Thr-Phe-Thr-Ser-Glu-Leu-Ser-Arg-Leu-Arg-Glu-Gly-Ala-Arg-Leu-Gln-Arg-Leu-Leu-Gln-Gly-Leu-Val- COOH [Analog 12, h[Orn^1]SCT]",Absent,–,Absent,–,–
"H2N-Phe-Thr-Ser-Glu-Leu-Ser-Arg-Leu-Arg-Glu-Gly-Ala-Arg-Leu-Gln-Arg-Leu-Leu-Gln-Gly-Leu-Val- COOH [Analog 6, hSCT(6–27)]",Absent,–,Absent,–,–
"H2N-Tic-Ser-Asp-Gly-Thr-Phe-Thr-Ser-Glu-Leu-Ser-Arg-Leu-Arg-Glu-Gly-Ala-Arg-Leu-Gln-Arg-Leu-Leu-Gln-Gly-Leu-Val- COOH [Analog 9, h[Tic^1]SCT]",Absent,–,Absent,–,–
"human pituitary adenylate cyclase-activating polypeptide [hPACAP, reference compound]",–,could also activate hSR to produce cAMP; also recorded: only at high concentrations,–,only at high concentrations,–
human secretin (peptide),–,–,–,–,1.63 nM
"human vasoactive peptide [hVIP, reference compound]",–,could also activate hSR to produce cAMP; also recorded: only at high concentrations,–,–,–
